Reference: patent publication US6689381B2, “Liposomal benzoquinazoline thymidylate synthase inhibitor formulations” (OSI Pharmaceuticals, Inc., priority 2000, dated 2004)
Values joined by “and” are separate entries in the source; they are usually repeats but may differ in a detail not shown here. Identical values can stand only once. Like-named read-outs stand apart in the source and are kept apart here.

Key:
[1] = Example 2: single dose plasma pharmacokinetics of free GW1843 and four liposomal formulations, 1 mg/kg iv bolus; assay type: in vivo, Sprague Dawley rats; conditions: single 1 mg/kg iv bolus; for GW1843 Plasma Concentration: listed as Free GW1843, 1 mg/kg
Source text: The plasma pharmacokinetics of free GW1843 and 4 different liposome formulations (see Table 1A; GC-1007-27, GC-1020-36, NA-1022-63A, and NA-1022-59A) of GW1843 in rats following a single intravenous bolus administration are compared. The liposome formulations differed by the pH utilized to load the liposome. NX1843 lot nos. GC-1007-27, GC-1020-36, NA-1022-63A, and NA-1022-59A were loaded at pH 7.0, 7.4, 7.3 and 7.5, respectively.
A total of fifteen Sprague Dawley rats were used in the study. Each rat weighed approximately 250 grams. Three animals were assigned to each group (five groups in total). Individual animals were weighed and dosed at 1 mg/kg body weight by intravenous bolus administration into the tail vein while under isoflurene anesthesia. EDTA blood samples were taken at the time points shown in Table 2 while under isoflurene anesthesia and immediately processed into plasma. Plasma was stored at −20° C. until analysis.
Plasma samples were prepared and analyzed for GW1843 by the use of a non-validated HPLC assay. Following methanol precipitation of plasma protein, the soluble GW1843 was separated by C-18 reverse phase column chromatography. Separation was achieved by an isocratic method. Running buffer consisted of 80% acetonitrile and 20% 100 mM ammonium acetate pH=5.3. Area under the peak versus concentration of GW1843 was used to construct the standard curve.
Pharmacokinetic parameters were determined by non-compartmental analysis (WinNonlin version 1.5). Pharmacokinetic parameters were determined for each experimental group using the average concentration versus time values for each group. The following parameters were calculated: Maximum plasma concentration (Cmax); area under the plasma concentration versus time curve extrapolating to infinite time (AUCinf) or to last time point (AUClast); elimation half-life (Elim.T½); mean residence time (MRT) plasma clearance (Cl) and volume of distribution at steady state (Vss).

[2] = tested on: human colon tumor xenograft model (HCT-8, thymidine kinase (TK)-/-); assay: HCT-8 xenograft, NX1843 dose schedule study and combinations with 5-FU, NX211 and GW1843 (Table 27); assay type: in vivo, nude mice
Protocol: Female Nu/Nu mice (18-24 g, 10-14 weeks old) were obtained from Harlan Sprague Dawley, and housed in microisolator filtration racks and maintained with filtered acidified water and sterile lab chow ad libitum. […] Animals were allowed to acclimate to their new environment for 1 week prior to tumor cell implantation. Tumors were established by injecting harvested tumor cells in a single subcutaneous site on the flank of the mice in the axillary region. The tumors were grown until approximately 200+/−50 mm^3 in size. The animals were then sorted according to body weight, grouped four animals/cage, and tattooed on the tail for permanent identification. Groups consisting of 8 tumor-bearing mice each were administered weekly doses of experimental agents by IV bolus injection through the tail vein. Tumor volumes were determined with vernier caliper measurements taken at right angles using the formula, (L×W^2/2) and body weights, were collected twice weekly. Data was plotted as % change in body weight vs. time in days, and % tumor volume increase vs. days.
(§1) T=(mean) time in days for treated group to reach cutoff size (2 grams)
(§2) C=(mean) time in days for control group to reach cutoff size (2 grams)
(§3) WC is the mean tumor weight of control group at time x
(§4) Wt is mean tumor weight of treated group at time x
% Regression=100 (Wo−Wi)/Wo; where Wo is the mean tumor weight for treated group at the initiation of treatment and Wi=the mean tumor weight for that group at time some time x after treatment.
In addition to these dose groups the free drug was dosed at 100 mg/kg on days 1-5, and repeated for a second week.

[3] = tested on: human colon tumor xenograft model (HCT-8, thymidine kinase (TK)-/-); assay type: in vivo; conditions: for durable cures: until termination at day 57
Source text: Female Nu/Nu mice (18-24 g, 10-14 weeks old) were obtained from Harlan Sprague Dawley, and housed in microisolator filtration racks and maintained with filtered acidified water and sterile lab chow ad libitum. The human colon tumor xenograft model (HCT-8, thymidine kinase (TK)−/−) was obtained from Dr. Youcef M. Rustum (Roswell Park, Buffalo, N.Y.), and established in-house as a useful model for evaluation of thymidylate synthase inhibitors. Animals were allowed to acclimate to their new environment for 1 week prior to tumor cell implantation. Tumors were established by injecting harvested tumor cells in a single subcutaneous site on the flank of the mice in the axillary region. The tumors were grown until approximately 200+/−50 mm^3 in size. The animals were then sorted according to body weight, grouped four animals/cage, and tattooed on the tail for permanent identification. Groups consisting of 8 tumor-bearing mice each were administered weekly doses of experimental agents by IV bolus injection through the tail vein. Tumor volumes were determined with vernier caliper measurements taken at right angles using the formula, (L×W^2/2) and body weights, were collected twice weekly. Data was plotted as % change in body weight vs. time in days, and % tumor volume increase vs. days.
as §1, §2, §3, §4
% Regression=100 (Wo−Wi)/Wo; where Wo is the mean tumor weight for treated group at the initiation of treatment and Wi=the mean tumor weight for that group at time some time x after treatment. Many times the time x=24-48 hr after the final dose of therapy.
The log10 cell kill (gross)=[T−C value in days/(3.32)(Td)
Where T−C=time difference in days between Treated and Control tumors to reach a defined end point; and Td is the Tumor Volume Doubling time in days from the best-fit straight line from a log-linear growth plot of the control tumors exponential growth (100-800 mg range). The conversion of the T−C values to the net log10 tumor cell kill are provided by subtraction of the duration of the treatment period from the T−C value and then dividing by 3.32×Td.
The initial experiment, designated NMX-427, tested the effects of GW1843U89 at two different dose levels, 50 and 100 mg/kg/day×17 days. The control group received vehicle alone. […] There were two durable cures, one in each of the dose groups, which remained until termination of the experiment at day 57. The side-effect toxicity as measured by gross body weight loss was minimal in both drug-treated groups, and was greatest in […]. […]

[4] = Sprague Dawley, rat, plasma, rats ~250 g, noncompartmental, group average

Q: Which results are given for `Cc1nc2ccc3ccc(CNc4ccc5c(c4)CN(C(CCC(=O)O)C(=O)O)C5=O)cc3c2c(=O)[nH]1` (centres unmarked) [GW1843]?
A: GW1843 Plasma Concentration ([1]; 0.083 h, individual rats): 0.76 µg/mL; GW1843 Plasma Concentration ([1]; 0.250 h, individual rats): 0.20 µg/mL and 0.19 µg/mL; GW1843 Plasma Concentration ([1]; 0.500 h, individual rats): 0.11 µg/mL and 0.10 µg/mL; GW1843 Plasma Concentration ([1]; 1.000 h, individual rats): BLQ and 0.06 μg/mL; concentration at 0.083 h ([1]; Sprague Dawley, rat, plasma, iv, 1 mg/kg, 0.083 h, individual rats): 520 ng/mL; concentration at 0.25 h ([1]; Sprague Dawley, rat, plasma, iv, 1 mg/kg, 0.250 h, individual rats): 180 ng/mL; concentration at 0.5 h ([1]; Sprague Dawley, rat, plasma, iv, 1 mg/kg, 0.500 h, individual rats): 100 ng/mL; concentration at 1 h ([1]; Sprague Dawley, rat, plasma, iv, 1 mg/kg, 1.000 h, individual rats): 60 ng/mL; Cmax ([1]; Sprague Dawley, rat, plasma, iv, 1 mg/kg, rats ~250 g, noncompartmental, group average, read-out: Cmax): 1280 ng/mL; half-life ([1]; Sprague Dawley, rat, plasma, iv, 1 mg/kg, rats ~250 g, noncompartmental, group average, read-out: t½ (elimination half-life) (converted)): ~30 min; Cmax ([1]; Sprague Dawley, rat, plasma, iv, 1 mg/kg, rats, text of Example 2, read-out: maximum achieved concentrations (Cmax) in the plasma): 1300 ng/mL; AUC(0-inf) [1, 4]: 263 ng·h/mL; AUC(0-t) [1, 4]: 219 ng·h/mL; MRT inf [1, 4]: 30 min; clearance ([1]; Sprague Dawley, rat, plasma, rats ~250 g, noncompartmental, group average, read-out: Cl (converted)): 63.4 mL/min/kg; Vd ([1]; Sprague Dawley, rat, plasma, rats ~250 g, noncompartmental, group average, read-out: Vss): 1.89 L/kg; clearance ([1]; Sprague Dawley, rat, plasma, rats, text of Example 2, read-out: plasma clearance (converted)): 63.4 mL/min; % TGI ([2]; 100 mg/kg, QD1-5 × 2): 80%; Cures ([2]; 100 mg/kg, QD1-5 × 2): 0; LCK ([2]; 100 mg/kg, QD1-5 × 2): 2.4; % Regression day 22 ([2]; 100 mg/kg, QD1-5 × 2, day 22): 0%; log cell kill (LCK) ([2]; iv, NX1843 25 mg/kg d1,8, 15 mg/kg QD(1,3,5)×2 or 7.5 mg/kg QD(1-5)×2, GW1843 100 mg/kg d1-5 ×2, 5FU 100 mg/kg d1,8, NX211 6 mg/kg d1,8, combinations at same doses): 2.4; log cell kill ([3]; 50 mg/kg/day×17 days): 3.0; durable cures ([3]; 50 mg/kg/day×17 days): one; log cell kill ([3]; 100 mg/kg/day×17 days): 3.3; durable cures ([3]; 100 mg/kg/day×17 days): one
